From US20170215422A1, “NOVEL CYCLIC DEPSIPEPTIDE DERIVATIVES AND HARMFUL ORGANISM CONTROL AGENTS COMPRISING THE SAME” (priority 2012, published 2017) come the findings set out here.

Common to all, as to assay type: in vivo
The test system of test [1] is larvae of Musca domestica. Description: Control effect against larvae of Musca domestica (treated feed). The settings on record: treatment of 12.5 ppm in feed; 5 days. On the procedure: A compound of the present invention was applied to a very small amount of DMSO, followed by dissolution in deionized water to prepare a chemical solution. The chemical solution (2 mil) adjusted to a concentration of 12.5 ppm was added to and well mixed with 2 g of a powder prepared by mixing wheat bran, MF feed (ORIENTAL YEAST Co., Ltd.), and dry yeast at a wheat bran:MF feed:dry yeast of 25:5:1 to prepare a feed for larvae of Musca domestica. The feed containing the compound was lightly packed in a 3-ml vial, and eight eggs were released. The mouth of the vial was closed with a meshed lid, and the vial was left to stand at 25° C. The number of larvae was counted five days after the chemical treatment, and the death rate was calculated by the following equation. The test was carried out by replicating each treatment twice.
Death rate (%)={number of dead larvae/(number of survived larvae+number of dead larvae)}×100

The test system of test [2] is Haemaphysalis longicornis. Description: Tickicidal effect against Haemaphysalis longicornis (capsule on mouse). Conditions: treatment of 9.5 μg on mouse body surface; nymphal ticks; 5 days. On the procedure: A capsule having a diameter of 2 cm and a height of 2 cm was bonded to a surface of a back surface of a mouse. A compound of the present invention (9.5 μg) was dissolved in ethanol, and the solution was dropped on the surface of the body of the […] within the capsule. After thorough drying, ten nymphal ticks of Haemaphysalis longicornis were released, and the upper portion of the capsule was lidded for hermetical closing. The mouse was grown in a cage at 25° C. for 12 hr under light phase conditions. Five days after the release, the capsule was removed, and survival or death of the nymphal ticks and the number of blood sucked individuals were measured, and the death/anguish rate was calculated by the following equation.
Death/anguish rate (%)={number of dead/anguished insects/(number of survived ticks+number of dead/anguished insects)}×100

The test system of the next test is Musca domestica. Description: Control effect against Musca domestica adults (sucrose solution on swab). The settings on record: 50 ppm in 40% sucrose solution, 4 days. The procedure: A chemical solution of the compound according to the present invention that had been adjusted with a 40% sucrose solution to a concentration of 50 ppm was adsorbed on a swab, and the swab was placed in a vial. Two adults of Musca domestica grown in a room were released, followed by standing in a room at a room temperature of 25° C. […] When two insects were in a dead or anguished state, the test compound was determined to be effective.

Test [3] relates to egg of drug-resistant Tetranychus uruticae. Description: Ovicidal effect against egg of drug-resistant Tetranychus uruticae. Conditions: foliage treatment of 10 ppm; eggs, drug-resistant strain; 7 days. The procedure:
<Miticidal Effect Against Two-Spotted Spider Mite (Drug-Resistant Strain)>
(§1) A leaf disk having a diameter of 2.0 cm was cut out from a kidney bean grown in a pot. The leaf disk was inoculated with seven female adult of drug-resistant Tetranychus uruticae, followed by laying in a thermostatic chamber (25° C.). After the elapse of 24 hr, female adults were removed from the leaf disk. The foliage was treated with a chemical solution adjusted to a 50% aqueous acetone solution (0.05% Tween 20 added) containing a compound of the present invention at a predetermined concentration. The foliage was then air-dried and was allowed to stand in a thermostatic chamber (light period 16 hr-dark period 8 hr) (25° C.). Seven days after the chemical solution treatment, the number of remaining eggs and the number of dead mites were counted, and the ovicidal/miticidal rate was calculated by the following equation.
(§2) Ovicidal/miticidal rate (%)={(number of remaining eggs+number of dead mites)/(number of remaining eggs+number of dead mites+number of survived insects)}×100

The test system of test [4] is egg of Tetranychus uruticae (susceptible strain). Description: Ovicidal effect against egg of Tetranychus uruticae (susceptible strain). Conditions: foliage treatment of 10 ppm; control agent. On the procedure:
<Miticidal Effect Against Two-Spotted Spider Mite (Susceptible Strain)>
as §1, with “of” for “of drug-resistant”
as §2

Compound `CCCCCC1OC(=O)C(CC(C)C)N(C)C(=O)C(CCCCC)OC(=O)C(CC(C)C)N(C)C(=O)C(CCCCC)OC(=O)C(CCC)N(C)C(=O)C(CCCCC)OC(=O)CN(C)C1=O` (centres unmarked) [Compound 57] registered a death rate in test [1] of 100%.

Take `CCCCC[C@@H]1OC(=O)[C@H](C)N(C)C(=O)[C@@H](CCCCC)OC(=O)[C@H](C)N(C)C(=O)[C@@H](CCCCC)OC(=O)[C@H](CC(C)C)N(C)C(=O)[C@@H](CCCCC)OC(=O)[C@H](C)N(C)C1=O` [Compound 27]: in test [2], the death/anguish rate entry is “not less than 70%”. Besides, the “insecticidal activity (two adults dead or anguished = effective)” value with Musca domestica is recorded as “two insects were brought to a dead or anguished state”.

Compound `CCCCCCCCCCCCC1=C(OC(C)=O)C(=O)c2ccccc2C1=O` [acequinocyl, reference compound] had an ovicidal/miticidal rate in test [3] of 11%. In test [4], the “ovicial/miticidal rate against egg of Tetranychus uruticae (susceptible strain)” value was determined as 71%.
